This note sets out measurements from patent US20250269050A1, “CYCLIC DICHALCOGENIDE ADC LINKER UNITS AND USES THEREOF” (priority 2024, published 2025).

Data set [1] relates to Trop-2-positive breast cancer cancer cell line. Put plainly: Anti-cancer efficacy study in mice, Trop-2-positive cancer model. It counts as in vivo. To be noted: single treatment at day 7, 3 mg/kg intravenous.
Data set [2] can be described thus: In vivo pharmacokinetics experiment in mice (intact immunoconjugate in plasma, MS-based). The conditions noted are these: single 7 mg/kg intravenous injection, plasma up to 380 h, FIG. 3. As to the method:
Mice are maintained in individually ventilated cages at constant temperature (22±2° C., air-conditioned) and humidity (45-65%), under optimum hygienic conditions with 10-15 air changes per hour. A cycle of 12 h artificial fluorescent lightning and 12 h darkness is applied and animal behavior is monitored daily throughout the study. The mice receive food and water ad libitum.
To study the in vivo disposition of molecules of the invention mice are treated once with 6, 7 or commercial Trodelvy® at a dose of 7 mg/kg by intravenous injection. Plasma samples are collected at the following time points: predose, postdose: 2 min, 6 h, 24 h, 48 h, 72 h, 168 h, 240 h, and 380 h. All samples are analyzed using an MS-based analytical method for quantification of the intact immunoconjugates and of the free molecular cargo in the mouse plasma.

With Trodelvy®, the “tumor growth compared to the vehicle group” value in data set [1] (FIG. 4) is reported as “strong suppression of tumor growth”. In addition, the “duration of tumor response” value in data set [1] (up to day 57, FIG. 4) is “tumors significantly start to grow again after day 30”. For the same substance, the “intact immunoconjugate in mouse plasma over time” value in data set [2] is “fast and significant loss of intact immunoconjugate”.
